Reference: patent US20160175313A1, “ENTECAVIR MICROSPHERES AND PHARMACEUTICAL COMPOSITION FOR PARENTERAL ADMINISTRATION CONTAINING SAME” (priority 2013, published 2016)

What was measured:
[1] = test system: rats
Procedure: A test was conducted to determine whether local irritation is caused by subcutaneous administration of entecavir into rats.
After entecavir (2.33 mg/kg/day) was subcutaneously injected into 15 male rats per each group, mortality, common symptoms, body weight, autopsy and histopathological evaluation on 1, 4, 5, 8 and 12 weeks were checked to compare with the control group in which excipient was administered.

[2] = Solubility of entecavir in organic solvent; assay type: physicochemical
[3] = orally administered; cited from earlier work
[4] = test system: HBV; details: first-time patients, oral preparations, cited from earlier work
[5] = rat, in vivo, sc, 2.33 mg/kg/day

## C=C1[C@H](CO)[C@@H](O)C[C@@H]1n1cnc2c(=O)[nH]c(N)nc21 [entecavir, Entecavir]
[1]; male rats, 2.33 mg/kg/day subcutaneous, checked up to 12 weeks
  mortality: no dead animal was observed
[1]; rat, in vivo, sc
  local toxicity, overall conclusion: did not show harmful local toxicity
[1]; [5]
  abnormal symptoms and abnormal body weight change related to administration: not observed
  autopsy results: no abnormal finding
  inflammation (histopathology): inflammation was observed
  recovery from inflammation: all animals recovered from inflammation
[1]; rats, 4 weeks after subcutaneous administration, 2.33 mg/kg/day
  injection site microscopy (H&E staining), inflammatory cells: some subcutaneous tissue inflammatory cells were observed
[2]
  solubility in methylene chloride: insoluble
[3]
  bioavailability: ~100%
[4]; 1 year
  patients HBV-undetectable after 1 year of administration: about 70%
[4]; 3 years
  patients HBV-undetectable after 3 years: about 90%
